Experiment [1] concerns the target T1, Thromboxane A2 receptor (Rattus norvegicus, UniProt P34978).
T1 sequence (P34978 whole entry): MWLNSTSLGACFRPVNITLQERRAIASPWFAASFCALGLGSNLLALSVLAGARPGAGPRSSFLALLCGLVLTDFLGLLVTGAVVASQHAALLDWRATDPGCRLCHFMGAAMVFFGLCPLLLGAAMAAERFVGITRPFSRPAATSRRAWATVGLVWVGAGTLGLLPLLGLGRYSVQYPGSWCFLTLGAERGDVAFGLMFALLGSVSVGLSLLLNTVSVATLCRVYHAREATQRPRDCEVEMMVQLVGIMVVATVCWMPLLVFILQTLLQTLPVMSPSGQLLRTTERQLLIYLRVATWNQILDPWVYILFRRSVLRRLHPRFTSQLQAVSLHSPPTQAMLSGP
The experiment is described as follows: In vitro thromboxane A2 antagonistic activity on U-46619 (0.1 uM) induced contraction of rat aorta. In kind it is functional, tissue-based.

Experiment [2] is filed under the species Cavia porcellus. The experiment is described as follows: In vitro inhibitory activity for the aggregation of guinea pig platelets induced by U-46,619 (4 uM) was determined. In kind it is functional.
The species named for experiment [3] is Homo sapiens. Put plainly: In vitro inhibitory activity for the aggregation of human platelets induced by U-46,619 (1 uM) was determined. In kind it is functional.
The species entered for experiment [4] is Cavia porcellus. Put plainly: Extra vivo inhibitory activity for the aggregation of guinea pig platelets induced by U-46,619 (4 uM) was determined. In kind it is functional, organism-based.
In experiment [5] the test system is Cavia porcellus. Put plainly: Ex vivo inhibitory activity (0.3 mg/kg p.o.) on the aggregation of guinea pig platelets induced by arachidonic acid (100 uM). In kind it is functional.
Experiment [6] concerns Cavia porcellus. Put plainly: Extra vivo inhibitory activity of compound (0.3 mg/kg p.o.) on the aggregation of guinea pig platelets induced by U-46619 (1 uM). In kind it is functional.
The species named for experiment [7] is Cavia porcellus. The experiment is described as follows: Extra vivo inhibitory activity of compound for the aggregation of guinea pig platelets induced by U-46,619 (4 uM) was determined. In kind it is functional, organism-based.

In ChEMBL document CHEMBL1131926, “Synthesis and thromboxane A2 antagonistic activity of indane derivatives” (Bioorg Med Chem Lett, 1999) one finds IC50, ED50 and Inhibition data, which are given here for 22 molecules.

As a reminder, the IC50 is the point on the concentration scale where inhibition reaches its midpoint. Read a low IC50 as greater potency in that assay. As a reminder, the ED50 is the dose at which the effect has come halfway, by size or by number of responders. Lower therefore signals greater potency. A word on the Inhibition: it is the change of the read-out against control, counted positive when it falls. Low values mean a response near the control, high ones a response far below the control.

Regarding `O=C(O)c1ccc2c(c1)CC(CCCCNS(=O)(=O)c1ccc(Cl)cc1)C2` (configuration not stated), the 50% inhibitory concentration (IC50) in experiment [1] was greater than 479 nM.

Turning to `O=C(O)Cc1ccc2c(c1)CC(CCCNS(=O)(=O)c1ccc(Cl)cc1)C2` (configuration not stated), inhibition in experiment [1] was half-maximal at 513 nM (IC50).

With `O=C(O)CCCCc1ccc2c(c1)CC(CNS(=O)(=O)c1ccc(Cl)cc1)C2` (configuration not stated), the concentration for half-maximal inhibition (IC50) in experiment [1] came out at 35.5 nM.

Turning to `O=C(O)Cc1ccc2c(c1)CC(CNS(=O)(=O)C1CCCCC1)C2` (configuration not stated), in experiment [1], 1200 nM corresponded to half-maximal inhibition (IC50).

On to `O=C(O)Cc1ccc2c(c1)CC(CNS(=O)(=O)c1ccc(Cl)cc1)O2` (configuration not stated), for which, in experiment [1], inhibition was half-maximal at 141 nM (IC50).

In experiment [1], `O=C(O)Cc1ccc2c(c1)CC(CCCCNS(=O)(=O)c1ccc(Cl)cc1)C2` (configuration not stated) had an IC50 of 977 nM.

Take `O=C([O-])Cc1ccc2c(c1)CC(CNS(=O)(=O)c1ccc3ccccc3c1)C2.[Na+]` (configuration not stated): the 50% inhibitory concentration (IC50) in experiment [2] came out at 310 nM; in experiment [3], 290 nM; in experiment [1] it was 22.4 nM. In addition, in experiment [4], the median effective dose (ED50) turned out to be 0.13 mg/kg. The Inhibition in experiment [5] and in experiment [6] was 100% each time.

As to `O=C([O-])CCc1ccc2c(c1)CC(CNS(=O)(=O)c1ccc(Cl)cc1)C2.[Na+]` (configuration not stated), the half-inhibitory concentration (IC50) in experiment [1] worked out at 14.8 nM. For the same molecule, the Inhibition was 57% in experiment [5] and 98% in experiment [6].

`O=C(O)Cc1ccc2c(c1)CC(CNS(=O)(=O)Cc1ccccc1)C2` (configuration not stated) returned a half-maximal inhibitory concentration (IC50) in experiment [1] of 5900 nM.

On to `O=C([O-])Cc1ccc2c(c1)CC(CCNS(=O)(=O)c1ccc(Cl)cc1)C2.[Na+]` (configuration not stated), for which half-maximal inhibition in experiment [1] (IC50) required 31.6 nM. The Inhibition in experiment [5] worked out at 83%; in experiment [6] it was 96%.

On to `O=C(O)Cc1ccc2c(c1)CC(NS(=O)(=O)c1ccc(Cl)cc1)C2` (configuration not stated), for which the IC50 in experiment [1] turned out to be 2.19 nM.

`O=C(O)Cc1ccc2c(c1)CC(CNS(=O)(=O)c1cccnc1)C2` (configuration not stated): the half-inhibitory concentration (IC50) in experiment [1] amounted to 1900 nM.

For the molecule `O=C([O-])c1ccc2c(c1)CC(CNS(=O)(=O)c1ccc(Cl)cc1)C2.[Na+]` (configuration not stated), the midpoint of inhibition in experiment [1], the IC50, lay at 26.3 nM. In addition, the Inhibition came out at 29% in experiment [5] and 58% in experiment [6].

`O=C([O-])CCCc1ccc2c(c1)CC(CNS(=O)(=O)c1ccc(Cl)cc1)C2.[Na+]` (configuration not stated): the IC50 worked out at 230 nM in experiment [2], 2690 nM in experiment [3] and 38.9 nM in experiment [1]. The molecule also had an ED50 in experiment [7] of 0.083 mg/kg. Besides, the Inhibition in experiment [5] and in experiment [6] was 100% each time.

`O=C(O)Cc1ccc2c(c1)CC(CNS(=O)(=O)c1cccs1)C2` (configuration not stated) gave a 50% inhibitory concentration (IC50) in experiment [1] of 85.1 nM.

`O=C(O)c1ccc2c(c1)CC(CCNS(=O)(=O)c1ccc(Cl)cc1)C2` (configuration not stated) yielded an IC50 in experiment [1] of 66.1 nM.

As for `O=C([O-])Cc1ccc2c(c1)CC(CNS(=O)(=O)c1ccc(Cl)cc1)C2.[Na+]` (configuration not stated), the half-maximal inhibitory concentration (IC50) in experiment [2] was 270 nM; in experiment [3], 280 nM; in experiment [1], 3.02 nM. The molecule further had a 50% effective dose (ED50) in experiment [7] of 0.063 mg/kg. For the same molecule, the Inhibition in experiment [5] and in experiment [6] was 100% in each case.

`O=C(O)c1ccc2c(c1)CC(CCCNS(=O)(=O)c1ccc(Cl)cc1)C2` (configuration not stated) returned a 50% inhibitory concentration (IC50) in experiment [1] of 85.1 nM.

Molecule `CCCCCS(=O)(=O)NCC1Cc2ccc(CC(=O)O)cc2C1` (configuration not stated) showed a half-maximal inhibitory concentration (IC50) in experiment [1] of 1400 nM.

Consider `O=C(O)Cc1ccc2c(c1)CC(CNS(=O)(=O)c1ccccc1)C2` (configuration not stated), for which inhibition in experiment [1] was half-maximal at 12.9 nM (IC50).

`O=C(O)Cc1ccc2c(c1)CC(CNS(=O)(=O)c1cccc3ccccc13)C2` (configuration not stated) displayed a half-inhibitory concentration (IC50) in experiment [1] of 295 nM.

As for `O=C(O)Cc1ccc(CCNS(=O)(=O)c2ccc(Cl)cc2)cc1` [DALTROBAN], the concentration for half-maximal inhibition (IC50) in experiment [2] was 500 nM; in experiment [3] it was 370 nM. In experiment [4], this molecule showed a median effective dose (ED50) of 0.53 mg/kg. Besides, the Inhibition in experiment [5] is on record as 25%; in experiment [6] it was 55%.
